Measured values taken from patent publication US20090048194A1, “Vagal Afferent Neurons as Targets for Treatment” (Janssen Pharmaceutica N.V., priority 2005, published 2009).

Assays:
sham nodose neurons = assay: Patch clamp recording of octreotide on dissociated sham nodose neurons; format: cell-based, Balb/c mice; conditions: for effect on number of action potentials at 2× rheobase: sham nodose neurons
Method: (§1) Balb/c mice were injected intraperitoneally with the retrograde labelling agent cholera toxin B 488 3-7 days prior to experiments. Mice were then anaesthetized with ketamine/xylazine, the spinal cord removed and DRG neurons isolated (T10-T13) for electrophysiological recordings 18-24 hours after their dissociation and incubation, and mounted on the stage of an inverted microscope (Leica DMIRE2)) for both bright-field and fluorescence observation. Cholera toxin labelled neurons were identified by their green fluorescence under the N3 filter system (Leica). Whole cell currents and voltage clamp experiments were performed by using MultiClamp 7A amplifier and digitized with a DigiData 1322A converter (Axon Instruments). Stimulation and data acquisition were obtained by the pClamp 9 program (Axon Instruments). Signals were sampled at 10 kHz or 20 kHz, and low-pass filtered at 4 KHz. The series resistance was compensated. Neurons were excluded from analysis if the seal resistance or access resistance was unstable, or if they fired spontaneous action potentials.
(§2) Borosilicate glass (Harvard) was pulled with a P97 micropipette puller (Sutter, Calif.), and fire polished by a M 200 microforge (World Precision Instrument) to a tip resistance of 5-10 MΩ. A silver-silver chloride pellet (world Precision Instrument) was placed in the recording dish as the reference electrode. The normal extracellular Kreb's solution contained (in mM): NaCl 118.0, KCl 4.7, NaH2PO4 1.0, NaHCO3 25.0, MgSO4 1.2, CaCl2 2.5, D-Glucose 11.1, with pH adjusted to 7.3 by using NaOH. The normal intracellular solution contained (in mM): HEPES 10.0, KCl 130.0, MgCl2 1.0, CaCl2 1.0, EGTA 2.0, K2ATP 2, Na3GTP 0.2, titrated with KOH to pH 7.25. The extracellular solution for isolating TTX-resistance Na currents composed of (in mM): NaCl 145.0, KCl 4.8, HEPES 10.0, MgCl2 1.0, CaCl2 2.5, D-glucose 11.1, TTX 0.0003, CdCl 0.5, 4-AP 1.0, TEA-Cl 5.0, CsCl 2.0, pH adjusted to 7.3 by using NaOH, and the corresponding intracellular solution was (in mM): EPES 10.0, CsCl 130.0, MgCl2 1.0, CaCl2 1.0, EGTA 2.0, K2ATP 2.0, Na3GTP 0.2, pH adjusted to 7.25 by using CsOH. All experiments were performed at temperature of 30° C.-33° C.
(§3) Data were analyzed by using pClamp 9 software (Axon Instruments). Neurons were recorded in both current-clamp and voltage-clamp configurations. Voltage clamp recordings were used to generate current-voltage relationships for cells. Current clamp recordings were used to determine the rheobase for action potential firing of neurons. The number of action potentials elicited at 2× rheobase was subsequently assessed in current clamp mode.
(§4) Nodose neurons were dissociated and cultured in preparation for patch clamp experiments as has been described elsewhere. These nodose neurons were either obtained from Balb/c mice 21 days after infection with Nb or from sham mice, thus enabling a comparison of the effects of octreotide on both sham and Nb-infected nodose neurons.
(§5) Octreotide (1 μM) was applied to individual neurons via a fast perfusion system. Octreotide's effects were recorded on the cell's resting membrane potential (RMP) and the number of action potentials fired at 2× rheobase of each neuron.

[1] = tested on: Nb-infected nodose neurons; assay: Patch clamp recording of octreotide on dissociated Nb-infected nodose neurons; format: cell-based, Balb/c mice; conditions: for effect on number of action potentials at 2× rheobase: infected nodose neurons
Method: as §1, §2, §3, §4, §5

[2] = octreotide 1 μM, listed as octreotide

C[C@@H](O)[C@@H]1NC(=O)[C@H](CCCCN)NC(=O)[C@@H](Cc2c[nH]c3ccccc23)NC(=O)[C@H](Cc2ccccc2)NC(=O)[C@@H](NC(=O)[C@H](N)Cc2ccccc2)CSSC[C@@H](C(=O)N[C@H](CO)[C@@H](C)O)NC1=O [Octreotide, octreotide]
effect on RMP (sham nodose neurons; sham neurons, octreotide 1 μM): no significant effect | resting membrane potential (RMP) (sham nodose neurons; sham neurons, octreotide 1 μM, n=27): −54.7±2.1 mV | number of action potentials evoked at 2× rheobase (FIG. 23 example) (sham nodose neurons; sham nodose neuron, after 1 μM octreotide, control in Krebs 2): 1 action potential | effect on number of action potentials at 2× rheobase (sham nodose neurons; octreotide 1 μM): reduced the number of action potentials | effect on number of action potentials at 2× rheobase (sham nodose neurons; [2]): reduces the number of action potentials | difference between the effect of octreotide on sham and infected neurons (action potentials at 2× rheobase) ([1]; 1 μM octreotide, sham vs infected, FIG. 24): no significant difference | effect on RMP ([1]; infected neurons, octreotide 1 μM): no significant effect | resting membrane potential (RMP) ([1]; infected neurons, octreotide 1 μM, n=25): −51.7±2.1 mV | number of action potentials evoked at 2× rheobase (FIG. 23 example) ([1]; infected nodose neuron, after 1 μM octreotide, control in Krebs 9): 2 action potentials | effect on number of action potentials at 2× rheobase ([1]; octreotide 1 μM): reduced the number of action potentials | effect on number of action potentials at 2× rheobase [1, 2]: reduces the number of action potentials
